Test results from PubChem BioAssay AID248 (DTP/NCI, 2004).
Where “and” joins values, the source holds several entries; their conditions need not be identical. Equal values may be shown once. Inconclusive results and toxic doses are left out. Rule as the data show it: active = T/C of 150% or more; inactive = T/C below 125%.

Test system: L1210 leukemia ip in BDF1 mice, survival T/C
Assay: NCI In Vivo Anticancer Drug Screen. Data for tumor model L1210 Leukemia (intraperitoneal) in B6D2F1 (BDF1) mice
Details: endpoint: mean survival time, higher = longer survival
In short: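 Transplantable tumor model; survival measured in treated vs vehicle control mice. Value = treated/control.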

[1] = dose: 25.0 mg/kg/injection, schedule: Q01DX009 (ip), vehicle: Klucel (hydroxypropylcellulose) (HPC)
[2] = dose: 50.0 mg/kg/injection, schedule: Q01DX009 (ip), vehicle: Klucel (hydroxypropylcellulose) (HPC)
[3] = dose: 100.0 mg/kg/injection, schedule: Q01DX009 (ip), vehicle: Klucel (hydroxypropylcellulose) (HPC)
[4] = dose: 25.0 mg/kg/injection, schedule: Q01DX009 (ip), vehicle: saline
[5] = dose: 50.0 mg/kg/injection, schedule: Q01DX009 (ip), vehicle: saline
[6] = dose: 100.0 mg/kg/injection, schedule: Q01DX009 (ip), vehicle: saline
[7] = dose: 200.0 mg/kg/injection, schedule: Q01DX009 (ip), vehicle: saline
[8] = dose: 400.0 mg/kg/injection, schedule: Q01DX009 (ip), vehicle: saline
[9] = dose: 100.0 mg/kg/injection, schedule: Q04DX003 (ip), vehicle: saline
[10] = dose: 100.0 mg/kg/injection, schedule: Q01DX001 (ip), vehicle: saline with Tween-80
[11] = dose: 100.0 mg/kg/injection, schedule: Q04DX003 (ip), vehicle: saline with Tween-80
[12] = dose: 200.0 mg/kg/injection, schedule: Q04DX003 (ip), vehicle: saline with Tween-80
[13] = dose: 400.0 mg/kg/injection, schedule: Q04DX003 (ip), vehicle: saline with Tween-80
[14] = dose: 100.0 mg/kg/injection, schedule: Q04DX002 (ip), vehicle: Klucel (hydroxypropylcellulose) (HPC)
[15] = dose: 200.0 mg/kg/injection, schedule: Q04DX002 (ip), vehicle: Klucel (hydroxypropylcellulose) (HPC)
[16] = dose: 400.0 mg/kg/injection, schedule: Q04DX002 (ip), vehicle: Klucel (hydroxypropylcellulose) (HPC)
[17] = dose: 100.0 mg/kg/injection, schedule: Q01DX001 (ip), vehicle: other
[18] = dose: 200.0 mg/kg/injection, schedule: Q01DX001 (ip), vehicle: other
[19] = dose: 400.0 mg/kg/injection, schedule: Q01DX001 (ip), vehicle: other

Measured: T/C

CC(CCl)OC(=O)CCO (centres undefined)
inactive: dose: 55.0 mg/kg/injection, schedule: Q01DX Z (ip), vehicle: methylcellulose (MC) 104 % of control | dose: 83.0 mg/kg/injection, schedule: Q01DX Z (ip), vehicle: methylcellulose (MC) 100 % of control | dose: 125.0 mg/kg/injection, schedule: Q01DX Z (ip), vehicle: methylcellulose (MC) 89 % of control

O=S(=O)(c1cc(Cl)c(O)c(Cl)c1)c1cc(Cl)c(O)c(Cl)c1
inactive: [1] 92 % of control | [2] 96 % of control | [3] 95 % of control and 109 % of control

C1=NCCCN2CCCCC12 (centres undefined)
inactive: dose: 2.35 mg/kg/injection, schedule: Q01DX009 (ip), vehicle: Klucel (hydroxypropylcellulose) (HPC) 92 % of control | dose: 4.69 mg/kg/injection, schedule: Q01DX009 (ip), vehicle: Klucel (hydroxypropylcellulose) (HPC) 92 % of control | dose: 9.38 mg/kg/injection, schedule: Q01DX009 (ip), vehicle: Klucel (hydroxypropylcellulose) (HPC) 97 % of control | dose: 18.75 mg/kg/injection, schedule: Q01DX009 (ip), vehicle: Klucel (hydroxypropylcellulose) (HPC) 106 % of control

O=C(O)CCSC(c1ccccc1)(c1ccccc1)c1ccccc1
inactive: [4] 102 % of control | [5] 103 % of control | [6] 96 % of control | [7] 100 % of control | dose: 300.0 mg/kg/injection, schedule: Q01DX009 (ip), vehicle: saline 96 % of control | [8] 96 % of control

CCOC(=O)/C(Cc1ccc2c(c1)OCO2)=N\O
inactive: [9] 96 % of control | dose: 200.0 mg/kg/injection, schedule: Q04DX003 (ip), vehicle: saline 97 % of control | dose: 400.0 mg/kg/injection, schedule: Q04DX003 (ip), vehicle: saline 103 % of control

CN(C)C(=S)N=Nc1ccccc1
inactive: dose: 50.0 mg/kg/injection, schedule: Q01DX009 (ip), vehicle: saline with Tween-80 92 % of control | [5] 97 % of control | dose: 100.0 mg/kg/injection, schedule: Q01DX009 (ip), vehicle: saline with Tween-80 100 % of control | [6] 100 % of control | dose: 200.0 mg/kg/injection, schedule: Q01DX009 (ip), vehicle: saline with Tween-80 100 % of control | [7] 107 % of control

COC(=O)NC(=S)Nc1ccccc1NC(=S)NC(=O)OC
inactive: [1] 94 % of control | [2] 102 % of control | [3] 105 % of control | dose: 100.0 mg/kg/injection, schedule: Q04DX003 (ip), vehicle: Klucel (hydroxypropylcellulose) (HPC) 96 % of control | dose: 200.0 mg/kg/injection, schedule: Q04DX003 (ip), vehicle: Klucel (hydroxypropylcellulose) (HPC) 99 % of control | dose: 400.0 mg/kg/injection, schedule: Q04DX003 (ip), vehicle: Klucel (hydroxypropylcellulose) (HPC) 87 % of control

CC12CCC3C(CCC4C(C)(C(=O)O)CCCC34C)(CC1=O)C2 (centres undefined)
inactive: [10] 92 % of control | dose: 200.0 mg/kg/injection, schedule: Q01DX001 (ip), vehicle: saline with Tween-80 95 % of control

C/C(=N/N(C)C)c1ccc(Cl)cc1
inactive: dose: 12.5 mg/kg/injection, schedule: Q01DX009 (ip), vehicle: saline 105 % of control | [4] 112 % of control | [5] 111 % of control | [9] 101 % of control

O=c1[nH]c2ccccc2c2ccccc12
inactive: [11] 92 % of control | [12] 97 % of control | [13] 95 % of control

COC(=O)C(Br)c1cccc(OC)c1 (centres undefined)
inactive: dose: 100.0 mg/kg/injection, schedule: Q01DX009 (ip), vehicle: saline sonified 100 % of control | dose: 100.0 mg/kg/injection, schedule: Q04DX003 (ip), vehicle: saline sonified 97 % of control | dose: 200.0 mg/kg/injection, schedule: Q01DX009 (ip), vehicle: saline sonified 120 % of control | dose: 200.0 mg/kg/injection, schedule: Q04DX003 (ip), vehicle: saline sonified 101 % of control | dose: 400.0 mg/kg/injection, schedule: Q01DX009 (ip), vehicle: saline sonified 105 % of control | dose: 400.0 mg/kg/injection, schedule: Q04DX003 (ip), vehicle: saline sonified 101 % of control

CSc1nc(Cl)cc(Sc2nc(N)nc3nc[nH]c23)n1
inactive: dose: 100.0 mg/kg/injection, schedule: Q01DX Z (ip), vehicle: methylcellulose (MC) 110 % of control

CC1=CC(=C2C=C(C)C(=O)C(C)=C2)C=C(C)C1=O
inactive: [10] 87 % of control | [11] 94 % of control and 102 % of control | [12] 94 % of control and 96 % of control | dose: 400.0 mg/kg/injection, schedule: Q01DX001 (ip), vehicle: saline with Tween-80 87 % of control | [13] 94 % of control and 89 % of control

COc1cc(NC(=O)Nc2ccc(F)c(Cl)c2)c(OC)cc1Cl
inactive: [14] 100 % of control | [15] 93 % of control | [16] 86 % of control

CCOC(=O)C(C)C1(O)CCCCC1 (centres undefined)
inactive: [6] 98 % of control | [7] 95 % of control | [8] 98 % of control

O=C(O)Cc1nc2ccccc2n1CC(=O)O
inactive: [14] 96 % of control | [15] 93 % of control | [16] 100 % of control

Oc1ccc2c(c1)CCc1cn[nH]c1-2
inactive: [17] 102 % of control | dose: 100.0 mg/kg/injection, schedule: Q01DX009 (ip), vehicle: other 98 % of control | [18] 103 % of control | dose: 200.0 mg/kg/injection, schedule: Q01DX009 (ip), vehicle: other 96 % of control | [19] 98 % of control | dose: 400.0 mg/kg/injection, schedule: Q01DX009 (ip), vehicle: other 94 % of control

Cc1ccc(CC2=NC(C)(C)CC(C)O2)cc1 (centres undefined)
inactive: dose: 100.0 mg/kg/injection, schedule: Q04DX002 (ip), vehicle: saline 101 % of control | dose: 200.0 mg/kg/injection, schedule: Q04DX002 (ip), vehicle: saline 93 % of control | dose: 400.0 mg/kg/injection, schedule: Q04DX002 (ip), vehicle: saline 106 % of control

CC1CCC2(OC1)OC1CC3C4CCC5CC(O)CCC5(C)C4CC(=O)OC3(C)C1C2C (centres undefined)
inactive: [17] 97 % of control | [18] 87 % of control | [19] 92 % of control

OC1CCCC[CH]1[Hg][Cl] (centres undefined)
inactive: dose: 5.0 mg/kg/injection, schedule: Q01DX001 (ip), vehicle: saline 95 % of control

N#CSCC(CCCCCCCCC(=O)O)SC#N (centres undefined)
inactive: dose: 12.5 mg/kg/injection, schedule: Q04DX002 (ip), vehicle: saline with Tween-80 91 % of control | dose: 25.0 mg/kg/injection, schedule: Q04DX002 (ip), vehicle: saline with Tween-80 100 % of control

CCCCC(=O)N/N=C\c1ccc(N(CC)CC)cc1
inactive: dose: 100.0 mg/kg/injection, schedule: Q01DX001 (ip), vehicle: carboxymethylcellulose (CMC) 95 % of control | dose: 200.0 mg/kg/injection, schedule: Q01DX001 (ip), vehicle: carboxymethylcellulose (CMC) 87 % of control | dose: 400.0 mg/kg/injection, schedule: Q01DX001 (ip), vehicle: carboxymethylcellulose (CMC) 87 % of control
